Laboratory results published in patent publication US8318736B2, “HIV inhibiting 5,6-substituted pyrimidines” (Janssen R&D Ireland, priority 2006, dated 2012).
Where two headings read alike, the source gives them in different places.

How the values were obtained:
[1] = system: HIV strain IIIB (wild type); assay: microbe, parasite or virus in culture; details: for pSI (IIIB) (-log SI; SI = ratio of CC50 to EC50): strain IIIB, CC50 in mock-infected MT4 CMV-EGFP cells
Description: Compounds of the invention were tested for their potency against wild type virus and clinically isolated HIV strains harboring one or more mutations associated with resistance to reverse transcriptase inhibitors. Antiviral activity was evaluated using a cellular assay performed according to the following procedure.
The human T-cell line MT4 was engineered with Green Fluorescent Protein (GFP) and a HIV-specific promoter, HIV-1 long terminal repeat (LTR). This cell line, designated MT4 LTR-EGFP, can be used for the in vitro evaluation of anti-HIV activity of investigational compounds. In HIV-1 infected cells, the Tat protein is produced, which upregulates the LTR promotor and eventually leads to stimulation of the GFP reporter production, allowing to measure ongoing HIV-infection fluorometrically.
Analogously, MT4 cells were engineered with GFP and the constitutional cytomegalovirus (CMV) promotor. This cell line was designated MT4 CMV-EGFP, and can be used for the in vitro evaluation of cytotoxicity of investigational compounds. […] Cytotoxic investigational compounds reduce GFP levels of mock-infected MT4 CMV-EGFP cells.
The ratio of CC50 to EC50 is defined as the selectivity index (SI) and is an indication of the selectivity of the anti-HIV activity of the inhibitor. The ultimate monitoring of HIV-1 infection and cytotoxicity was done using a scanning microscope. […] Measurements were done before cell necrosis, which usually takes place about five days after infection, in particular measurements were performed three days after infection.
The columns IIIB, L100I, etc. in the table list the pEC50 (−log EC50) values against various strains IIIB, L100I, etc.; pSI lists the −log SI values.
Strain IIIB is wild type HIV strain.

[2] = system: HIV strain L100I + K103N; assay: microbe, parasite or virus in culture; format: cell-based, HIV-1; details: L100I + K103N strain; MT4 LTR-EGFP cells
Source text: (§1) Image analysis allowed very sensitive detection of viral infection.

[3] = biological target: HIV strain MDR (L100I, K103N, Y181C, E138G, V1791, L2214F, V278V/I and A327A/V in HIV reverse transcriptase); assay: microbe, parasite or virus in culture; format: cell-based, HIV-1; details: MDR strain; MT4 LTR-EGFP cells
Source text: as §1
“MDR” refers to a strain that contains mutations L100I, K103N, Y181C, E138G, V1791, L2214F, V278V/I and A327A/V in HIV reverse transcriptase.

[4] = wild type HIV strain IIIB, MT4 LTR-EGFP cells, three days after infection

| melting point [°C] | Structure (SMILES) | IIIB pEC50 (-log EC50) [1, 4] | L100I + K103N pEC50 (-log EC50) [2] | MDR pEC50 (-log EC50) [3] | pSI (IIIB) (-log SI; SI = ratio of CC50 to EC50) [1] | IIIB pEC50 (-log EC50) [1] |
| --- | --- | --- | --- | --- | --- | --- |
| 207 | COCc1nc(Nc2ccc(C#N)cc2)nc(Nc2ccc(/C=C/C#N)cc2)c1/C=C/c1ccc(OC)cc1 |  |  |  |  |  |
|  | COCCNC(=O)c1c(COC)nc(Nc2ccc(C#N)cc2)nc1Nc1c(C)cc(C=C(C)C#N)cc1C (mixture of isomers) [Compound 32] | 8.48 | 7.80 | 7.05 |  |  |
|  | COCc1nc(Nc2ccc(C#N)cc2)nc(Nc2c(C)cc(C=CC#N)cc2C)c1C(=O)N(C)OC (mixture of isomers) [Compound 25] | 8.72 | 7.19 | 6.27 | 4.02 |  |
|  | COCc1nc(Nc2ccc(C#N)cc2)nc(Nc2c(C)cc(/C=C/C#N)cc2C)c1C(=O)N1CCN(CCO)CC1 [Compound 17] | 7.43 | 6.59 | 5.19 | >2.83 |  |
|  | COCc1nc(Nc2ccc(C#N)cc2)nc(Nc2c(C)cc(/C=C/C#N)cc2C)c1C(=O)NCc1ccccn1 [Compound 20] | 8.83 | 7.28 | 7.03 | 3.81 |  |
|  | C=CCNC(=O)c1c(COC)nc(Nc2ccc(C#N)cc2)nc1Nc1c(C)cc(/C=C/C#N)cc1C [Compound 24] |  | 7.99 | 6.72 |  | 8.66 |
|  | COCc1nc(Nc2ccc(C#N)cc2)nc(Nc2c(C)cc(C=CC#N)cc2C)c1C(=O)NCC1CCCO1 (mixture of isomers) [Compound 9] | 8.28 | 7.26 | 6.45 | 3.55 |  |
|  | COCCNC(=O)c1c(COC)nc(Nc2ccc(C#N)cc2)nc1Oc1c(C)cc(C=CC#N)cc1C (mixture of isomers) [Compound 35] | 8.54 | 7.09 | 6.18 | 3.76 |  |
|  | COCc1nc(Nc2ccc(C#N)cc2)nc(Nc2c(C)cc(C=CC#N)cc2C)c1C(=O)NCc1ccncc1 (mixture of isomers) [Compound 11] | 8.47 | 7.43 | 7.24 | 3.59 |  |
|  | COCc1nc(Nc2ccc(C#N)cc2)nc(Nc2c(C)cc(C=CC#N)cc2C)c1C(=O)NCc1cccs1 (mixture of isomers) [Compound 18] | 8.23 | 6.97 | 6.42 | >3.63 |  |
|  | COCc1nc(Nc2ccc(C#N)cc2)nc(Nc2c(C)cc(/C=C/C#N)cc2C)c1C(=O)NC1CC1 [Compound 23] | 8.62 | 7.81 | 6.85 | 3.87 |  |
|  | COCc1nc(Nc2ccc(C#N)cc2)nc(Nc2c(C)cc(C=CC#N)cc2C)c1C(=O)NCCc1ccc(S(N)(=O)=O)cc1 (mixture of isomers) [Compound 29] | 7.83 | 7.01 | 6.72 | >3.23 |  |
|  | COCc1nc(Nc2ccc(C#N)cc2)nc(Nc2c(C)cc(C=CC#N)cc2C)c1C(=O)NCCNC(C)=O (mixture of isomers) [Compound 12] | 8.25 | 7.42 | 6.68 | 3.59 |  |
|  | COCc1nc(Nc2ccc(C#N)cc2)nc(Nc2c(C)cc(C=CC#N)cc2C)c1C(=O)NCCN1CCOCC1 (mixture of isomers) [Compound 14] | 8.41 | 6.67 | 6.42 | 3.70 |  |
